Assay [1] has as its target Carbonic anhydrase 4 (Homo sapiens, UniProt P22748). The experiment in a line: Inhibition of recombinant human carbonic anhydrase 4 incubated for 15 mins prior to testing measured for 10 to 100 secs by phenol red-based stopped-flow CO2 hydration assay.
The target in assay [2] is Carbonic anhydrase 1 (Homo sapiens, UniProt P00915). The experiment in a line: Inhibition of recombinant human carbonic anhydrase 1 incubated for 15 mins prior to testing measured for 10 to 100 secs by phenol red-based stopped-flow CO2 hydration assay.
Sequence of Carbonic anhydrase 1 (P00915 whole entry): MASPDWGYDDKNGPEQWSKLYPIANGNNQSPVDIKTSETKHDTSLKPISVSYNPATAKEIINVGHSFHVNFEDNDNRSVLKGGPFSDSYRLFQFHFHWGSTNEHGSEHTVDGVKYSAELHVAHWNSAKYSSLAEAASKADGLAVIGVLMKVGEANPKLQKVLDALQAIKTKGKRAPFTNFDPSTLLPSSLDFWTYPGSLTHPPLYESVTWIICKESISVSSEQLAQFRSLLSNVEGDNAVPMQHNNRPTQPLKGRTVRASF
The target in assay [3] is Carbonic anhydrase 9 (Homo sapiens, UniProt Q16790). The experiment in a line: Inhibition of recombinant human carbonic anhydrase 9 incubated for 15 mins prior to testing measured for 10 to 100 secs by phenol red-based stopped-flow CO2 hydration assay.
Assay [4] concerns the target Carbonic anhydrase 2 (Homo sapiens, UniProt P00918). Briefly: Inhibition of recombinant human carbonic anhydrase 2 incubated for 15 mins prior to testing measured for 10 to 100 secs by phenol red-based stopped-flow CO2 hydration assay.
Assay [5] is filed under the species Homo sapiens. The experiment in a line: Selectivity ratio of Ki for inhibition of recombinant human carbonic anhydrase 2 to Ki for Ki for inhibition of recombinant human carbonic anhydrase 9.

Molecules are shown by their SMILES.

Sequence of Carbonic anhydrase 4 (P22748 whole entry): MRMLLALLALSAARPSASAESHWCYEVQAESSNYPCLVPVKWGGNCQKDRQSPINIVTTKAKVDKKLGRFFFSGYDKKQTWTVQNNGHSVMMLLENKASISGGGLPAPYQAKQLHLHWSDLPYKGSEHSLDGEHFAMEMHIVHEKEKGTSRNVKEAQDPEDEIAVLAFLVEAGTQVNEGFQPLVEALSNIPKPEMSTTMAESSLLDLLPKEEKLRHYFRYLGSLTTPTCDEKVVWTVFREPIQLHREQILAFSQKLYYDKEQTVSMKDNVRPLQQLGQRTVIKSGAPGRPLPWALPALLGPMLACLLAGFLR

In general, Ki refers to a dissociation constant, usually derived from enzyme kinetics or from competition with a known ligand. Regarding `COc1ccc(-c2ccnc(N3CCN(C(=O)Nc4ccc(OS(N)(=O)=O)cc4)CC3)n2)cc1`, the Ki was 0.384 µM in assay [1], 3.93 µM in assay [2], 31.8 µM in assay [3] and 0.0291 µM in assay [4].
Consider `Cc1cccc(-c2ccnc(N3CCN(C(=O)Nc4ccc(OS(N)(=O)=O)cc4)CC3)n2)c1`, for which the Ki turned out to be 1.32 µM in assay [1], 4.07 µM in assay [2], 93.3 µM in assay [3] and 0.207 µM in assay [4].
Consider `NS(=O)(=O)Oc1ccc(NC(=O)N2CCN(c3ccc(Cl)cc3)CC2)cc1`, for which the Ki in assay [1] worked out at 2.59 µM.
Turning to `NS(=O)(=O)Oc1ccc(NC(=O)N2CCN(c3nccc(-c4cccc(Br)c4)n3)CC2)cc1`, the Ki in assay [1] turned out to be 0.831 µM; in assay [2] it was 7.77 µM; in assay [3], 30.5 µM; in assay [4], 0.124 µM.
Regarding `Cc1cccc(N2CCN(C(=O)Nc3ccc(OS(N)(=O)=O)cc3)CC2)c1C`, the Ki in assay [1] is 1.09 µM.
With `NS(=O)(=O)Oc1ccc(NC(=O)N2CCN(c3nccc(-c4ccccc4)n3)CC2)cc1`, the Ki in assay [1] was found to be 4.1 µM; in assay [2], 2.37 µM; in assay [3], 156 µM; in assay [4] it was 0.706 µM.
Consider `NS(=O)(=O)Oc1ccc(NC(=O)N2CCN(c3nccc(-c4cccc(C(F)(F)F)c4)n3)CC2)cc1`, for which the Ki in assay [1] was 0.458 µM; in assay [2], 3.47 µM; in assay [3], 27.1 µM; in assay [4] it was 0.0587 µM.
For the compound `Cc1cccc(N2CCN(C(=O)Nc3ccc(OS(N)(=O)=O)cc3)CC2)c1`, the Ratio Ki in assay [5] stood at 16.
Turning to `NS(=O)(=O)Oc1ccc(NC(=O)N2CCN(c3ccccc3)CC2)cc1`, in assay [5], the Ratio Ki was determined as 7.
`CCCCCCCCN1CCN(C(=O)Nc2ccc(OS(N)(=O)=O)cc2)CC1`: the Ki in assay [1] turned out to be 4.8 µM; in assay [2], 0.752 µM; in assay [3] it was 31.4 µM; in assay [4], 0.0159 µM.
On to `COc1cccc(N2CCN(C(=O)Nc3ccc(OS(N)(=O)=O)cc3)CC2)c1`, for which, in assay [1], the Ki amounted to 0.994 µM.
As for `NS(=O)(=O)Oc1ccc(NC(=O)N2CCN(Cc3cc4ccccc4o3)CC2)cc1`, the values for the Ki in assay [2], in assay [3] and in assay [4] were 0.76 µM, 32.7 µM and 0.0362 µM, respectively.
With `NS(=O)(=O)Oc1ccc(NC(=O)N2CCN(c3ccc(Cl)c(Cl)c3)CC2)cc1`, the Ki in assay [1] was determined as 1.64 µM; in assay [2], 0.919 µM; in assay [4] it was 0.0454 µM.
`CCCCCCCCCCN1CCN(C(=O)Nc2ccc(OS(N)(=O)=O)cc2)CC1`: the Ki was 4.19 µM in assay [1], 0.68 µM in assay [2], 32.2 µM in assay [3] and 0.021 µM in assay [4].
As to `COc1cc(-c2ccnc(N3CCN(C(=O)Nc4ccc(OS(N)(=O)=O)cc4)CC3)n2)cc(OC)c1OC`, the Ki came to 0.28 µM in assay [1], 5.28 µM in assay [2], 24.2 µM in assay [3] and 0.0068 µM in assay [4].
Turning to `COc1ccc(N2CCN(C(=O)Nc3ccc(OS(N)(=O)=O)cc3)CC2)cc1`, the Ki in assay [1] was determined as 1.63 µM.
For `Cc1ccccc1N1CCN(C(=O)Nc2ccc(OS(N)(=O)=O)cc2)CC1`, the Ki is 0.759 µM in assay [1], 0.692 µM in assay [2], 29.7 µM in assay [3] and 0.0569 µM in assay [4].
